{"source": "patent US10513519B2", "about": "“Solid forms of (1S,4S)-4-(2-(((3S,4R)-3-fluorotetrahydro-2H-pyran-4-yl)amino)-8-((2,4,6-trichlorophenyl)amino)-9H-purin-9-yl)-1-methylcyclohexane-1-carboxamide and methods of their use” (Signal Pharmaceuticals, LLC, priority 2016, dated 2019)", "key": {"[1]": {"test_system": "DUSP4, DUSP6, cyclin D1, c-Myc, YAP in Colo 205 (BRAF V600E)", "assay": "Western blot of MAPK, Wnt and Hippo pathway markers in Colo 205", "assay_type": "cell-based", "description": "The ability of Compound 1 to inhibit MAPK signaling was assessed by determining the DUSP4 and DUSP6 protein expression. Colon cancer cell line Colo 205 (BRAF V600E) cultures were treated with DMSO or increasing concentrations of Compound 1 for 2, 8 or 24 h. Proteins were extracted from treated cells and analyzed by Western blot using antibodies against DUSP4, DUSP6, cyclin D1, c-Myc, YAP or β-actin. RNAs were extracted using Cell-To-CT kit and quantitative PCR was performed with probes specific for DUSP4, DUSP6, SPRY2, c-Myc and cyclin D1. Specific probes for β-actin were used for normalization.\nCompound 1 modulation of MAPK, WNT/β-catenin, and Hippo/YAP pathway markers was evaluated by standard Western blotting. LOX-IMVI, SW48, and Colo-205 cells were plated in 6-well plates at a density of 250,000 cells per well and were allowed to attach overnight. Compound 1 was added to cells at concentrations of 0.03, 0.1, 0.3, 1, and 3 μM for durations of 2, 8, and 24 hours. […] The cell lysates were heated in sodium dodecyl sulfate (SDS)-sample buffer and 40 μg of cell lysate per condition were loaded onto gels and separated using SDS polyacrylamide gel electrophoresis (PAGE). Protein was transferred to nitrocellulose membrane, and immunoblotted with anti DUSP4, DUSP6, cMyc, Cyclin D1, YAP, AXIN2, HDAC5 (phospho S498), and β-actin antibodies. Membranes were scanned on the Licor Odyssey system."}, "[2]": {"test_system": "WI38 VA13 cells expressing 8×GTIIC-luciferase", "assay": "Viability assay (Cell Titer Fluor)", "assay_type": "cell-based", "conditions": "24 or 72 hours, three assays", "description": "In parallel 10,000 WI38 VA13 cells expressing 8×GTIIC-luciferase were seeded in each well of a black-walled 96-well plate. After 16-20 hours cells were treated with compound for 24 or 72 hours. At this time the serum and compound containing media was removed and replaced with 100 μl serum free media and 100 μl Cell Titer Fluor (Promega). The plate was incubated for 2 hours at 37° C. before reading fluorescence output. This assay is based on measurement of live-cell protease activity. The viability assay was performed to confirm that any effects of compounds on TEAD reporter were not the result of compound effects on viability. This assay was performed 3 times for Compound 1 and twice for Trametinib."}, "Hep3B (HCC) cells": {"test_system": "Hep3B (HCC) cells", "assay": "Long term colony assay, Hep3B", "assay_type": "cell-based", "conditions": "up to 8 weeks", "description": "Compound 1 was assessed for its ability to inhibit the colony formation of cancer cells via a long-term colony forming assay. Cells and compounds were added to 96-well plates and were monitored for up to 8 weeks for the formation of colonies. Compound and media were replenished every 1 week throughout the course of the assay. Colony formation was detected via imaging at 4× on the IncuCyte ZOOM System. […] (FIGS. 210A-210D)."}, "pKa": {"assay": "pKa", "assay_type": "physicochemical"}, "HCC cell lines": {"test_system": "HCC cell lines", "assay": "HCC cell line proliferation (CellTiter-Glo)", "assay_type": "cell-based", "conditions": "for IC50 / GI50: CellTiter-Glo", "description": "HCC cell lines were treated with DMSO or increasing concentrations of Compound 1 for 72 h. Specifically, Compound 1 at various concentrations in dimethyl sulfoxide (DMSO) was spotted via an acoustic dispenser (EDC ATS-100) into an empty 384-well plate. Compound 1 was spotted in a 10-point serial dilution fashion (3-fold dilution) in duplicate within the plate. Replicates of plates spotted with Compound 1 were made for use with different cell lines. After compound plate replication, all plates were sealed (Agilent ThermoLoc) and stored at −20° C. for up to 1 month. When ready for testing, plates were removed from the freezer, thawed, and unsealed just prior to the addition of the test cells.\nPrior to testing, cells were grown and expanded in culture flasks to provide sufficient amounts of starting material. Cells were then diluted to the appropriate densities and added directly to the compound-spotted 384-well plates. Cells were allowed to grow for 72 h at 37° C./5% CO2. At the time when compound was added (to), initial cell number was assessed via a viability assay (Cell Titer-Glo) by quantifying the level of luminescence generated by ATP present in viable cells. After 72 h, cell viability of compound-treated cells was assessed via Cell Titer-Glo and luminescence measurement. The apoptotic response to Compound 1 was assessed by quantifying the activities of caspase 3 and caspase 7 (Caspase 3/7-Glo) in treated cells and DMSO control cells.\nProliferation and apoptosis were measured using CellTiter-Glo and Caspase 3/7-Glo. CalX2 values are the lowest concentration at which Compound 1 induces a 2-fold increase of cleaved caspase 3/7 compared to DMSO control. Proliferation and apoptosis data is the average of 3 experiments."}}}
{"compound": "C[C@]1(C(N)=O)CC[C@@H](n2c(Nc3c(Cl)cc(Cl)cc3Cl)nc3cnc(N[C@@H]4CCOC[C@H]4F)nc32)CC1", "note": "[Compound 1, cis-4-[2-{[(3S,4R)-3-fluorooxan-4-yl]amino}-8-(2,4,6-trichloroanilino)-9H-purin-9-yl]-1-methylcyclohexane-1-carboxamide]", "values": [{"measurement": "cyclin D1 and c-Myc RNA and protein levels", "setting": "[1]; Colo 205", "result": "significantly decreased"}, {"measurement": "YAP protein", "setting": "[1]; Colo 205, 24 h", "result": "decreased YAP protein"}, {"measurement": "DUSP4 and DUSP6 protein", "setting": "[1]; Colo 205, as early as 2 h, sustained through 24 h", "result": "significantly reduced"}, {"measurement": "viability", "setting": "[2]", "result": "not reproducibly affected"}, {"measurement": "inhibition of colony formation vs trametinib and GDC0994", "setting": "Hep3B (HCC) cells", "result": "greater levels of inhibition than seen with treatment with MEK inhibitors or ERK inhibitors"}, {"measurement": "pKa", "setting": "pKa", "result": 5.14}, {"measurement": "proliferation of HCC lines", "setting": "HCC cell lines; 72 h", "result": "inhibits proliferation"}, {"measurement": "IC50", "setting": "HCC cell lines; 72 h, JHH-5, 72 h", "result": 0.0072, "unit": "µM"}, {"measurement": "GI50", "setting": "HCC cell lines; 72 h, JHH-6, 72 h", "result": "≥ 10", "unit": "µM"}, {"measurement": "IC50", "setting": "HCC cell lines; 72 h, JHH-6, 72 h", "result": "≥ 10", "unit": "µM"}, {"measurement": "IC50", "setting": "HCC cell lines; HepG2/C3A, 72 h", "result": "≥ 10", "unit": "µM"}, {"measurement": "IC50", "setting": "HCC cell lines; Homo sapiens, SK-HEP1, 72 h, SK-HEP-1, 72 h", "result": "≥ 10", "unit": "µM"}, {"measurement": "IC50", "setting": "HCC cell lines; Homo sapiens, SNU-423, 72 h", "result": "≥ 10", "unit": "µM"}, {"measurement": "GI50", "setting": "HCC cell lines; Homo sapiens, SNU-449, 72 h", "result": "≥ 10", "unit": "µM"}, {"measurement": "IC50", "setting": "HCC cell lines; Homo sapiens, SNU-449, 72 h", "result": "≥ 10", "unit": "µM"}, {"measurement": "IC50", "setting": "HCC cell lines; Homo sapiens, SNU-475, 72 h", "result": "≥ 10", "unit": "µM"}]}
